Laboratory results: publication PMC5075052, “Modulation of the Substitution Pattern of 5-Aryl-2-Aminoimidazoles Allows Fine-Tuning of Their Antibiofilm Activity Spectrum and Toxicity” (Antimicrobial Agents and Chemotherapy, 2016)
Where two headings read alike, the source gives them in different places.

Tests used:
[1] = system: S. Typhimurium ATCC 14028; test: Monospecies bacterial biofilm inhibition, static peg assay; assay type: cell-based, Salmonella enterica serovar Typhimurium; details: Salmonella enterica, S. Typhimurium ATCC 14028, 25°C
Description: (§1) A static peg assay, described previously ([27], [74]), was used for bacterial biofilm formation. The Calgary biofilm device consists of a platform carrying 96 polystyrene pegs (Nunc no. 445497) that fits as a microtiter plate lid, with 1 peg hanging into each microtiter plate well (Nunc no. 269789). Twofold serial dilutions of the compounds (dissolved in 100% dimethyl sulfoxide [DMSO] or ethanol) in 100 μl liquid broth (TSB diluted 1/20) per well were prepared in the microtiter plate in duplicate or triplicate with a maximum concentration of 1,600 μM and a minimum concentration of 0.8 μM. Subsequently, an overnight culture of S. Typhimurium ATCC 14028, P. aeruginosa PA14, E. coli TG1, S. epidermidis, S. aureus SH1000, or S. aureus ATCC 6538 (all grown in LB) was diluted 1:100 into TSB diluted 1/20 (or TSB for S. epidermidis, S. aureus SH1000, and S. aureus ATCC 6538), whereas overnight cultures of S. liquefaciens MG44 and B. cepacia LMG1222T were diluted 1:50 into TSB diluted 1/20. P. gingivalis ATCC 33277 cultures were diluted in TSB diluted 1/20 to have a final concentration of 1 × 10^8 cells/ml. Next, 100 μl was added to each well of the microtiter plate, resulting in a total volume of 200 μl medium per well (final concentration range of compounds, 800 μM [2% DMSO or ethanol] to 0.4 μM [0.001% DMSO or ethanol]). In the next step, the pegged lid was placed on the microtiter plate and the plate was incubated for 24 h or 48 h at 25°C or 37°C without shaking. At 37°C, the plates were placed in a sealed container with wet towels on the bottom to prevent evaporation of the growth medium. Biofilms of P. gingivalis ATCC 33277 were grown anaerobically at 37°C for 72 h. During this incubation period, biofilms were formed on the surface of the pegs. After incubation, the optical density at 600 nm (OD600) for the planktonic cells in the microtiter plate was measured using a Synergy MX multimode reader (BioTek, Winooski, VT). This gives a first indication of the effect of the compounds on planktonic growth. For quantification of biofilm formation, the pegs were washed once in 200 μl PBS. The remaining attached bacteria were stained for 30 min with 200 μl 0.1% (wt/vol) crystal violet in an isopropanol-methanol-PBS solution (1:1:18, vol/vol). Excess stain was rinsed off by placing the pegs in a 96-well plate filled with 200 μl distilled water per well. After air drying of the pegs (30 min), the dye bound to the adherent biofilm was extracted with 30% glacial acetic acid (200 μl per well of a 96-well plate). The optical density at 570 nm (OD570) of each well was measured using a Synergy MX multimode reader (BioTek, Winooski, VT). The concentration of each compound needed to inhibit biofilm formation by 50% (BIC50) and the concentration of each compound needed to inhibit planktonic growth by 50% (IC50) were determined from the concentration gradient by using nonlinear curve fitting (GraphPad Prism software, version 5; GraphPad Software, Inc., La Jolla, CA). In the same assay, the effect on planktonic growth was evaluated. The activity was considered biofilm specific if the BIC50 was at least two times lower than the IC50. Data represent the means from at least 3 technical repeats with the corresponding 95% confidence intervals (provided in the supplemental material).

[2] = system: P. aeruginosa PA14; test: as above; assay type: cell-based, Pseudomonas aeruginosa; details: Pseudomonas aeruginosa
Description: as §1

[3] = system: C. albicans SC5314; test: Inhibition of C. albicans biofilms, CellTiter-Blue quantification; assay type: cell-based, Candida albicans; details: Candida albicans; C. albicans SC5314, 37°C, CTB method; read-out: BIC50 (μM) for C. albicans SC5314 (37°C)
Description: The potential of the compounds to prevent C. albicans SC5314 biofilm formation was assessed using the CellTiter-Blue (CTB) quantification method ([75]). […]. Twofold serial dilutions of the compounds (dissolved in 100% DMSO or ethanol) in 100 μl RPMI 1640 medium per well were prepared in a round-bottom polystyrene 96-well microtiter plate (TPP; Trasadingen, Switzerland) in duplicate or triplicate with a maximum concentration of 1,600 μM and a minimum concentration of 0.8 μM. One hundred microliters of the cell suspension was added to each well of the microtiter plate, resulting in a total volume of 200 μl medium per well (final concentration range of compounds, 800 μM [2% DMSO or ethanol] to 0.4 μM [0.001% DMSO or ethanol]). After 16 h of static incubation at 37°C, the biofilms were washed and quantified by the CTB method as described previously ([73]).

[4] = system: S. liquefaciens MG44; test: Monospecies bacterial biofilm inhibition, static peg assay; assay type: cell-based, Serratia liquefaciens; details: Serratia liquefaciens, S. liquefaciens MG44, 25°C
Description: as §1

[5] = system: S. aureus ATCC 6538; test: Monospecies bacterial biofilm inhibition, static peg assay (Calgary device, crystal violet; planktonic OD600); assay type: cell-based, Staphylococcus aureus
Description: as §1

[6] = system: C. albicans SC5314 + S. epidermidis; test: Mixed C. albicans-S. epidermidis biofilm, selective plating CFU; assay type: cell-based, Candida albicans + Staphylococcus epidermidis; details: 37°C; for activity at 100 µM: 100 μM compound
Description: Overnight cultures of C. albicans SC5314 (YPD) and S. epidermidis (TSB) were diluted in RPMI 1640 medium to OD600s of 0.05 and 0.01, respectively. Equal volumes of the cell suspensions of each organism were mixed before use. One hundred microliters of this mixed cell suspension together with compound was added to the wells of a round-bottom microtiter plate (TPP; Trasadingen, Switzerland) in triplicate. Concentrations of 25 μM (0.0625% DMSO or ethanol) and 100 μM (0.25% DMSO or ethanol) were tested. After 24 h of incubation at 37°C, the biofilms were washed with PBS and fresh medium with or without compounds was added. After a further incubation for 48 h at 37°C, the biofilms were washed with PBS, after which the cells were resuspended in 100 μl of PBS by scraping them off, sonicated (1 min, 45 kHz; USC300-T; VWR, Radnor, PA, USA), and vigorously pipetted up and down. Finally, the biofilm cells were diluted in PBS and plated on YPD agar plates containing 100 mg/liter ampicillin and TSA plates containing 25 mg/liter amphotericin B to determine the number of fungal and bacterial CFU, respectively, after 2 days of incubation at 37°C. The percentage of C. albicans SC5314 and S. epidermidis cells relative to the number of cells after DMSO or ethanol control treatment was determined.

[7] = PA14, P. aeruginosa PA14, 25°C, read-out: BIC50
[8] = PA14, P. aeruginosa PA14, 37°C, read-out: BIC50
[9] = PA14, P. aeruginosa PA14, 37°C, read-out: IC50 (planktonic growth)
[10] = read-out: IC50 (planktonic growth)
[11] = Staphylococcus aureus, ATCC6538, read-out: BIC50 (concentration needed to inhibit biofilm formation by 50%), S. aureus ATCC 6538, 37°C
[12] = Staphylococcus aureus, ATCC6538, read-out: IC50 (concentration needed to inhibit planktonic growth by 50%), S. aureus ATCC 6538, 37°C, planktonic OD600
[13] = 25 μM compound, read-out: % CFU survival, C. albicans
[14] = 25 μM compound, read-out: % CFU survival, S. epidermidis
[15] = read-out: % CFU survival, C. albicans
[16] = read-out: % CFU survival, S. epidermidis
[17] = PA14, P. aeruginosa PA14, 25°C, read-out: IC50 (planktonic growth)
[18] = Staphylococcus aureus, ATCC6538, S. aureus ATCC 6538, 37°C, planktonic OD600, read-out: IC50 (concentration needed to inhibit planktonic growth by 50%)
[19] = Staphylococcus aureus, ATCC6538, S. aureus ATCC 6538, 37°C, read-out: BIC50 (concentration needed to inhibit biofilm formation by 50%)

Compound	IC50 ([1]; read-out: BIC50) [µM]	IC50 [2, 7] [µM]	IC50 [2, 8] [µM]	IC50 [2, 9] [µM]	IC50 [3] [µM]	IC50 ([4]; read-out: BIC50) [µM]	IC50 [4, 10] [µM]	IC50 [5, 11] [µM]	IC50 [5, 12] [µM]	% CFU survival, C. albicans ([6]; 25 μM compound)	% CFU survival, S. epidermidis ([6]; 25 μM compound)	activity at 25 µM [6, 13] [%]	activity at 25 µM [6, 14] [%]	activity at 100 µM [6, 15] [%]	activity at 100 µM [6, 16] [%]	IC50 ([5]; read-out: BIC50 (concentration needed to inhibit biofilm formation by 50%), S. aureus ATCC 6538, 37°C) [µM]	IC50 [1, 10] [µM]	IC50 [2, 17] [µM]	IC50 [5, 18] [µM]	IC50 [5, 19] [µM]
CCCCCn1c(-c2ccccc2)cnc1N [Compound 1]	48.4	2.1	104	45.2	145	168	177	59.3	231	–	–	–	–	–	–	–	–	–	–	–
CCCCCCCCn1c(-c2ccc(Cl)cc2)cnc1N [Compound 2]	~5.9	4	118	10	6.2	18.8	38	2 to 6	7.8	completely inhibited	completely inhibited	< 0.6	0	< 0.2	0	2.8	–	–	–	–
CCCCNc1ncc(-c2ccc(Br)cc2)[nH]1 [Compound 4]	7.1	9.8	> 400	> 400	66.7	4.4	118	~12.3	60.1	–	–	–	–	–	–	–	–	–	–	–
Brc1ccc(-c2cnc(NCCn3cc(C4CC4)nn3)[nH]2)cc1 [Compound 6]	2	71.6	> 400	> 400	> 400	63.3	> 400	75.2	> 400	–	–	–	–	–	–	–	2.4	> 400	–	–
CCCCCCCCn1c(-c2ccccc2)cnc1NCC(C)C [Compound 8a]	–	> 400	> 400	66	9.3	–	–	–	–	–	–	62.4	–	1	1	–	–	75.3	17.9	~22.9
CCCCCCCCn1c(-c2ccc(Cl)cc2)cnc1NCC(C)C [Compound 8b]	–	> 400	> 400	115	11	–	–	–	–	–	–	2	6.1	18.2	0.7	–	–	222	9.3	5.8
CCCCCCCCn1c(-c2ccc(Br)cc2)cnc1NCC(C)C [Compound 8c]	–	> 400	> 400	345	> 100	–	–	–	–	–	–	3.2	637	8.4	966	–	–	> 400	173	41
CCCCCCCCn1c(-c2ccc(Cl)c(Cl)c2)cnc1NCC(C)C [Compound 8d]	–	> 400	> 400	> 400	> 100	–	–	–	–	–	–	2.5	–	1.4	–	–	–	> 400	> 400	116
CCCCCCCCn1c(-c2ccccc2)cnc1NC1CCCC1 [Compound 8e]	–	> 400	> 400	167	~11.9	–	–	–	–	–	–	10	93.1	2.5	0	–	–	62.9	46.5	1
CCCCCCCCn1c(-c2ccc(Cl)cc2)cnc1NC1CCCC1 [Compound 8f]	–	> 400	> 400	> 400	8.9	–	–	–	–	–	–	2.9	2.5	7.2	0.3	–	–	> 400	~24.1	6.7
CCCCCCCCn1c(-c2ccc(Br)cc2)cnc1NC1CCCC1 [Compound 8g]	–	> 400	> 400	> 400	21.1	–	–	–	–	–	–	3.3	0	5.9	0	–	–	> 400	19.1	8.5
CCCCCCCCn1c(-c2ccc(Cl)c(Cl)c2)cnc1NC1CCCC1 [Compound 8h]	–	> 400	> 400	> 400	> 100	–	–	–	–	–	–	6.7	2	3.5	2.2	–	–	> 400	19.5	3.8
